From PubChem BioAssay (NCI)
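Here, GI50 denotes the concentration required for 50% inhibition of growth. The concentration for full growth arrest is given as TGI.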

Columns and labels:
Test in all cases: inhibition of tumour cell growth, NCI panel, 384-well format
M14 melanoma = tested on: M14 melanoma
HOP-62 NSCLC = tested on: HOP-62 NSCLC
NCI-H322M lung = tested on: NCI-H322M lung
DU-145 prostate = tested on: DU-145 prostate
HCC-2998 colon = tested on: HCC-2998 colon
HCT-15 colon = tested on: HCT-15 colon
A498 renal = tested on: A498 renal
RPMI-8226 leukemia = tested on: RPMI-8226 leukemia
MALME-3M melanoma = tested on: MALME-3M melanoma
MDA-MB-435 melanoma = tested on: MDA-MB-435 melanoma
EKVX NSCLC = tested on: EKVX NSCLC
U251 glioblastoma = tested on: U251 glioblastoma
SF-295 CNS = tested on: SF-295 CNS
UACC-62 melanoma = tested on: UACC-62 melanoma
786-0 renal = tested on: 786-0 renal
MOLT-4 leukemia = tested on: MOLT-4 leukemia
RXF 393 renal = tested on: RXF 393 renal
OVCAR-5 ovarian = tested on: OVCAR-5 ovarian
T-47D breast = tested on: T-47D breast
SF-539 CNS = tested on: SF-539 CNS
NCI-H522 lung = tested on: NCI-H522 lung
NCI-H23 lung = tested on: NCI-H23 lung
MCF7 breast = tested on: MCF7 breast
UO-31 renal = tested on: UO-31 renal
SK-MEL-5 melanoma = tested on: SK-MEL-5 melanoma
UACC-257 melanoma = tested on: UACC-257 melanoma
SK-OV-3 ovarian = tested on: SK-OV-3 ovarian
PC-3 prostate = tested on: PC-3 prostate
HOP-92 NSCLC = tested on: HOP-92 NSCLC
MDA-MB-231 breast = tested on: MDA-MB-231 breast
SR leukemia = tested on: SR leukemia
NCI-H460 NSCLC = tested on: NCI-H460 NSCLC
A549 NSCLC = tested on: A549 NSCLC
K-562 leukemia = tested on: K-562 leukemia
COLO 205 colon = tested on: COLO 205 colon
CAKI-1 renal = tested on: CAKI-1 renal
HL-60(TB) leukemia = tested on: HL-60(TB) leukemia
NCI-H226 lung = tested on: NCI-H226 lung
SK-MEL-2 melanoma = tested on: SK-MEL-2 melanoma
BT-549 breast = tested on: BT-549 breast
CCRF-CEM leukemia = tested on: CCRF-CEM leukemia
HCT-116 colon = tested on: HCT-116 colon
HT29 colon = tested on: HT29 colon
IGROV1 ovarian = tested on: IGROV1 ovarian
NCI/ADR-RES ovarian = tested on: NCI/ADR-RES ovarian
SW-620 colon = tested on: SW-620 colon
SK-MEL-28 melanoma = tested on: SK-MEL-28 melanoma
TK-10 renal = tested on: TK-10 renal
HS 578T breast = tested on: HS 578T breast
SF-268 CNS = tested on: SF-268 CNS
KM12 colon = tested on: KM12 colon
ACHN renal = tested on: ACHN renal
LOX IMVI melanoma = tested on: LOX IMVI melanoma
OVCAR-3 ovarian = tested on: OVCAR-3 ovarian
SN12C renal = tested on: SN12C renal
OVCAR-4 ovarian = tested on: OVCAR-4 ovarian
MDA-MB-468 breast = tested on: MDA-MB-468 breast
SNB-75 CNS = tested on: SNB-75 CNS

How did the GI50 (M14 melanoma) turn out when O=C(O)c1ccc2c(c1)nc(Nc1cccc(Cl)c1)c1ccncc12 was run?
Its GI50 is 1270 nM.

And the TGI (M14 melanoma)?
The TGI was 3080 nM.

And the GI50 (HOP-62 NSCLC)?
Its GI50 is 1730 nM.

What about the TGI (HOP-62 NSCLC) of the same compound?
Its TGI is 3860 nM.

What about the GI50 (NCI-H322M lung) of the same compound?
Its GI50 is 1080 nM.

And the TGI (NCI-H322M lung)?
The TGI was 3290 nM.

What about the GI50 (DU-145 prostate) of the same compound?
The GI50 was 1710 nM.

And the TGI (DU-145 prostate)?
The TGI was 5200 nM.

And the GI50 (HCC-2998 colon)?
Its GI50 is 1380 nM.

What about the TGI (HCC-2998 colon) of the same compound?
The TGI was 3890 nM.

What about the GI50 (HCT-15 colon) of the same compound?
Its GI50 is 1740 nM.

What about the TGI (HCT-15 colon) of the same compound?
Its TGI is 3660 nM.

And the GI50 (A498 renal)?
The GI50 was 1420 nM.

What about the TGI (A498 renal) of the same compound?
The TGI was 3310 nM.

And the GI50 (RPMI-8226 leukemia)?
Its GI50 is 1880 nM.

And the TGI (RPMI-8226 leukemia)?
Its TGI is 3350 nM.

And the GI50 (MALME-3M melanoma)?
The GI50 was 1040 nM.

What about the TGI (MALME-3M melanoma) of the same compound?
Its TGI is 2560 nM.

And the GI50 (MDA-MB-435 melanoma)?
The GI50 was 1450 nM.

And the TGI (MDA-MB-435 melanoma)?
Its TGI is 3330 nM.

What about the GI50 (EKVX NSCLC) of the same compound?
The GI50 was 1480 nM.

And the TGI (EKVX NSCLC)?
Its TGI is 3930 nM.

And the GI50 (U251 glioblastoma)?
The GI50 was 888 nM.

What about the TGI (U251 glioblastoma) of the same compound?
The TGI was 2460 nM.

And the GI50 (SF-295 CNS)?
Its GI50 is 1810 nM.

What about the TGI (SF-295 CNS) of the same compound?
Its TGI is 4590 nM.

And the GI50 (UACC-62 melanoma)?
The GI50 was 1370 nM.

And the TGI (UACC-62 melanoma)?
The TGI was 2770 nM.

What about the GI50 ([…]-0 renal) of the same compound?
Its GI50 is 1750 nM.

What about the TGI (786-0 renal) of the same compound?
Its TGI is 4750 nM.

What about the GI50 (MOLT-4 leukemia) of the same compound?
Its GI50 is 1400 nM.

What about the TGI (MOLT-4 leukemia) of the same compound?
The TGI was 2730 nM.

And the GI50 (RXF 393 renal)?
Its GI50 is 1560 nM.

What about the TGI (RXF 393 renal) of the same compound?
Its TGI is 3980 nM.

And the GI50 (OVCAR-5 ovarian)?
The GI50 was 1770 nM.

And the TGI (OVCAR-5 ovarian)?
The TGI was 8810 nM.

What about the GI50 (T-47D breast) of the same compound?
Its GI50 is 1400 nM.

What about the TGI (T-47D breast) of the same compound?
The TGI was 3550 nM.

And the GI50 (SF-539 CNS)?
Its GI50 is 1190 nM.

And the TGI (SF-539 CNS)?
The TGI was 3000 nM.

And the GI50 (NCI-H522 lung)?
Its GI50 is 521 nM.

What about the TGI (NCI-H522 lung) of the same compound?
Its TGI is 1840 nM.

What about the GI50 (NCI-H23 lung) of the same compound?
Its GI50 is 1420 nM.

What about the TGI (NCI-H23 lung) of the same compound?
Its TGI is 2970 nM.

What about the GI50 (MCF7 breast) of the same compound?
The GI50 was 1490 nM.

And the TGI (MCF7 breast)?
Its TGI is 4060 nM.

What about the GI50 (UO-31 renal) of the same compound?
Its GI50 is 2150 nM.

What about the TGI (UO-31 renal) of the same compound?
The TGI was 6110 nM.

What about the GI50 (SK-MEL-5 melanoma) of the same compound?
Its GI50 is 1400 nM.

What about the TGI (SK-MEL-5 melanoma) of the same compound?
The TGI was 2710 nM.

What about the GI50 (UACC-257 melanoma) of the same compound?
The GI50 was 1570 nM.

And the TGI (UACC-257 melanoma)?
Its TGI is 3460 nM.

And the GI50 (SK-OV-3 ovarian)?
The GI50 was 1430 nM.

What about the TGI (SK-OV-3 ovarian) of the same compound?
The TGI was 3940 nM.

What about the GI50 (PC-3 prostate) of the same compound?
The GI50 was 1600 nM.

What about the TGI (PC-3 prostate) of the same compound?
Its TGI is 3690 nM.

And the GI50 (HOP-92 NSCLC)?
Its GI50 is 1420 nM.

What about the TGI (HOP-92 NSCLC) of the same compound?
Its TGI is 4650 nM.

And the GI50 (MDA-MB-231 breast)?
Its GI50 is 1560 nM.

What about the TGI (MDA-MB-231 breast) of the same compound?
Its TGI is 3700 nM.

And the GI50 (SR leukemia)?
Its GI50 is 1450 nM.

And the TGI (SR leukemia)?
The TGI was 2770 nM.

And the GI50 (NCI-H460 NSCLC)?
Its GI50 is 2280 nM.

What about the TGI (NCI-H460 NSCLC) of the same compound?
Its TGI is 7890 nM.

And the GI50 (A549 NSCLC)?
Its GI50 is 2990 nM.

And the TGI (A549 NSCLC)?
The TGI was > 100000 nM.

And the GI50 (K-562 leukemia)?
The GI50 was 1500 nM.

And the TGI (K-562 leukemia)?
Its TGI is 3320 nM.

And the GI50 (COLO 205 colon)?
The GI50 was 1860 nM.

What about the TGI (COLO 205 colon) of the same compound?
Its TGI is 4140 nM.

And the GI50 (CAKI-1 renal)?
Its GI50 is 1530 nM.

And the TGI (CAKI-1 renal)?
The TGI was 3730 nM.

And the GI50 (HL-60(TB) leukemia)?
Its GI50 is 1540 nM.

What about the TGI (HL-60(TB) leukemia) of the same compound?
The TGI was 2930 nM.

And the GI50 (NCI-H226 lung)?
The GI50 was 1260 nM.

And the TGI (NCI-H226 lung)?
The TGI was 2660 nM.

And the GI50 (SK-MEL-2 melanoma)?
The GI50 was 2970 nM.

What about the TGI (SK-MEL-2 melanoma) of the same compound?
Its TGI is 4540 nM.

And the GI50 (BT-549 breast)?
Its GI50 is 1020 nM.

And the TGI (BT-549 breast)?
Its TGI is 2670 nM.

And the GI50 (CCRF-CEM leukemia)?
The GI50 was 1180 nM.

And the TGI (CCRF-CEM leukemia)?
Its TGI is 2420 nM.

What about the GI50 (HCT-116 colon) of the same compound?
The GI50 was 1530 nM.

What about the TGI (HCT-116 colon) of the same compound?
The TGI was 3080 nM.

What about the GI50 (HT29 colon) of the same compound?
Its GI50 is 2950 nM.

What about the TGI (HT29 colon) of the same compound?
The TGI was 10100 nM.

What about the GI50 (IGROV1 ovarian) of the same compound?
The GI50 was 1950 nM.

And the TGI (IGROV1 ovarian)?
Its TGI is 4640 nM.

And the GI50 (NCI/ADR-RES ovarian)?
Its GI50 is 1690 nM.

And the TGI (NCI/ADR-RES ovarian)?
Its TGI is 3280 nM.

And the GI50 (SW-620 colon)?
The GI50 was 2030 nM.

And the TGI (SW-620 colon)?
The TGI was 4790 nM.

And the GI50 (SK-MEL-28 melanoma)?
The GI50 was 1470 nM.

And the TGI (SK-MEL-28 melanoma)?
The TGI was 3160 nM.

What about the GI50 (TK-10 renal) of the same compound?
The GI50 was 2140 nM.

And the TGI (TK-10 renal)?
Its TGI is 5810 nM.

And the GI50 (HS 578T breast)?
Its GI50 is 445 nM.

What about the TGI (HS 578T breast) of the same compound?
The TGI was 2330 nM.

And the GI50 (SF-268 CNS)?
The GI50 was 1150 nM.

What about the TGI (SF-268 CNS) of the same compound?
The TGI was 2870 nM.

What about the GI50 (KM12 colon) of the same compound?
Its GI50 is 1890 nM.

What about the TGI (KM12 colon) of the same compound?
Its TGI is 4380 nM.

And the GI50 (ACHN renal)?
The GI50 was 2520 nM.

And the TGI (ACHN renal)?
The TGI was 8010 nM.

What about the GI50 (LOX IMVI melanoma) of the same compound?
The GI50 was 1870 nM.

What about the TGI (LOX IMVI melanoma) of the same compound?
Its TGI is 3800 nM.

And the GI50 (OVCAR-3 ovarian)?
Its GI50 is 399 nM.

And the TGI (OVCAR-3 ovarian)?
Its TGI is 1950 nM.

And the GI50 (SN12C renal)?
The GI50 was 1500 nM.

And the TGI (SN12C renal)?
The TGI was 3690 nM.

And the GI50 (OVCAR-4 ovarian)?
Its GI50 is 1540 nM.

And the TGI (OVCAR-4 ovarian)?
Its TGI is 6770 nM.

What about the GI50 (MDA-MB-468 breast) of the same compound?
The GI50 was 656 nM.

And the TGI (MDA-MB-468 breast)?
Its TGI is 2050 nM.

And the GI50 (SNB-75 CNS)?
Its GI50 is 1410 nM.

And the TGI (SNB-75 CNS)?
Its TGI is 3850 nM.
